Activity calls are given as the source filed them.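 Rule for the calls: active = tumour findings in long-term animal cancer tests in more than one sex, species or organ; inactive = no tumour finding and more than one negative test.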
Test: DSSTox (CPDBAS) Carcinogenic Potency Database Summary MultiCellCall Results
Conditions: animal carcinogenicity bioassays, multi-cell call summary
How it was run: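 ActivityScore sums 50 for multispecies, 30 for multisex and 20 for multisite positivity. Based on the most positive experiment per sex-species across standardised chronic rodent and other animal cancer tests.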
With `CC(C)=CCC/C(C)=C/C=O` the outcome was “inactive; multisex inactive; multispecies inactive”.
In the case of `NC(=S)Nc1ccccc1`, the outcome is reported as “inactive; multisex inactive; multispecies inactive”.
In the case of `CN(C)c1ccc(N=NS(=O)(=O)O)cc1`, the outcome is reported as “inactive; multisex inactive; multispecies inactive”.
For `C=CCN(CC(C)=O)N=O`, the outcome was “active; multisite active; multispecies active”.
With `c1ccccc1` the outcome was “active; multisite active; multisex active; multispecies active”.
For `ClC/C=C/CCl`, the outcome was “active; multisex active”.
For `CC(=O)OC[C@]12C[C@H](OC(=O)CC(C)C)C(C)=C[C@H]1O[C@@H]1[C@H](O)[C@@H](OC(C)=O)[C@@]2(C)C12CO2` (stereo not given in full), the outcome was “active; multisite active”.
With `CC(C)C/C=N/N(C)C=O` the outcome was “active; multisite active; multisex active”.
For `CC(C)Oc1ccc(Nc2ccccc2)cc1`, the outcome was “inactive; multisex inactive”.
For `CCOC(=O)C(C)(C)Oc1ccc(Cl)cc1`, the outcome was “active; multisite active”.
For `Nc1ccc2c(n1)[nH]c1ccccc12`, the outcome was “active; multisite active; multisex active”.
With `ClCC(Br)CBr` (stereo not given) the outcome was “active; multisite active; multisex active; multispecies active”.
For `Clc1ccc(C(c2ccc(Cl)cc2)C(Cl)Cl)cc1`, the outcome was “active; multisite active; multisex active”.
For `O=C(O)c1ccccc1`, the outcome was “inactive; multisex inactive; multispecies inactive”.
With `Cc1ccc(N)cc1N` the outcome was “active; multisite active; multisex active; multispecies active”.
With `NC(=O)OCC(COC(N)=O)c1ccccc1` the outcome was “active; multisite active; multisex active; multispecies active”.
In the case of `Nc1ccc(N)c2c1C(=O)c1c(N)ccc(N)c1C2=O`, the outcome is reported as “active; multisex active”.
In the case of `CN=[N+](C)[O-]`, the outcome is reported as “active; multisite active”.
In the case of `COc1cccc2c1cc([N+](=O)[O-])c1c(C(=O)O)cc3c(c12)OCO3`, the outcome is reported as “active; multisex active”.
In the case of `ClCC(Cl)CCl`, the outcome is reported as “active; multisite active; multisex active; multispecies active”.
For `CCn1nc(C)c2c1C(c1ccccc1)=NCC(=O)N2`, the outcome was “active; multisex active”.
For `Cc1ccc(N)cc1Cl`, the outcome was “inactive; multisex inactive; multispecies inactive”.
In the case of `CC(=O)NN`, the outcome is reported as “active; multisex active”.
For `O=C(O)CCCC/C=C(\c1ccccc1)c1cccnc1`, the outcome was “inactive; multisex inactive; multispecies inactive”.
In the case of `O=C1CCCCCN1`, the outcome is reported as “inactive; multisex inactive; multispecies inactive”.
For `Cc1ccc(Cc2cnc(NCCSCc3ccc(CN(C)C)o3)[nH]c2=O)cn1`, the outcome was “active; multisex active”.
With `Nc1cccc2c(N)cccc12` the outcome was “active; multisite active; multisex active; multispecies active”.
For `OCCBr`, the outcome was “active; multisex active”.
With `CCCCCCc1ccc(O)cc1O` the outcome was “inactive; multisex inactive; multispecies inactive”.
With `CC(=O)Nc1ccc(OCC(O)CNC(C)C)cc1` (stereo not given) the outcome was “inactive; multisex inactive; multispecies inactive”.
For `[S-]c1nc2ccccc2s1.[S-]c1nc2ccccc2s1.[Zn+2]`, the outcome was “inactive; multisex inactive”.
In the case of `O=NN(CCO)C(=O)NCCCl`, the outcome is reported as “active; multisite active; multisex active”.
With `O=C/C(Cl)=C(/Cl)C(=O)O` the outcome was “inactive; multisex inactive”.
In the case of `[Cl-].[Cl-].[Cl-].[Fe+3]`, the outcome is reported as “inactive; multisex inactive”.
With `O=C(O)c1cc(N=Nc2ccc(S(=O)(=O)Nc3ccccn3)cc2)ccc1O` the outcome was “active; multisite active; multisex active; multispecies active”.
In the case of `Oc1cccc2cccnc12`, the outcome is reported as “inactive; multisex inactive; multispecies inactive”.
For `[N-]=[N+]=[N-]`, the outcome was “inactive; multisex inactive”.
With `Cc1cc(N=Nc2c(O)ccc3ccccc23)c(S(=O)(=O)O)cc1Cl` the outcome was “active; multisite active”.
With `CCCN(N=O)C(N)=O` the outcome was “active; multisex active”.
With `O=NN1CCOC1` the outcome was “active; multisite active; multisex active”.
For `CCN(Cc1cccc(S(=O)(=O)O)c1)c1ccc(C(=C2C=CC(=[N+](CC)Cc3cccc(S(=O)(=O)[O-])c3)C=C2)c2ccccc2)cc1`, the outcome was “active; multisite active; multisex active”.
With `O=NN1CC(=O)NC1=O` the outcome was “active; multisite active; multisex active”.
In the case of `C=C/C1=C/[C@H](C)[C@](C)(OC(C)=O)C(=O)OCC2=CC[N+]3(C)CC[C@@H](OC1=O)C23[O-]` (stereo not given in full), the outcome is reported as “active; multisite active”.
For `C=CC(=C)C`, the outcome was “active; multisite active; multisex active; multispecies active”.
In the case of `Nc1ccc(-c2ccc(F)cc2)cc1`, the outcome is reported as “active; multisex active”.
In the case of `CC(O)C(=O)O` (stereo not given), the outcome is reported as “inactive; multisex inactive”.
With `CC1(C)C(=O)Nc2ccc(C3=NNC(=O)CC3)cc21` the outcome was “active; multisex active”.
With `Nc1cc([N+](=O)[O-])ccc1C(=O)O` the outcome was “inactive; multisex inactive; multispecies inactive”.
With `NC(=O)N(CCO)N=O` the outcome was “active; multisite active; multisex active; multispecies active”.
In the case of `CC(C)C=O`, the outcome is reported as “inactive; multisex inactive; multispecies inactive”.
For `Nc1cc(Cl)c(-c2cc(Cl)c(N)cc2Cl)cc1Cl`, the outcome was “inactive; multisex inactive; multispecies inactive”.
In the case of `CCCCCl`, the outcome is reported as “inactive; multisex inactive; multispecies inactive”.
In the case of `CCBr`, the outcome is reported as “active; multisite active; multisex active; multispecies active”.
With `C=CC=O` the outcome was “inactive; multisex inactive; multispecies inactive”.
In the case of `O=P(O)(OCC(Br)CBr)OCC(Br)CBr` (stereo not given), the outcome is reported as “active; multisite active; multisex active”.
For `CNc1ncnc2c1ncn2[C@@H]1O[C@H](CO)[C@@H](O)[C@H]1O`, the outcome was “inactive; multisex inactive”.
With `CNc1ncnc2nc[nH]c12` the outcome was “inactive; multisex inactive”.
In the case of `NCCCC(N)(C(=O)O)C(F)F` (stereo not given), the outcome is reported as “inactive; multisex inactive”.
For `CC(O)CN(N=O)C(=O)NCCCl` (stereo not given), the outcome was “active; multisex active”.
In the case of `COc1cc(/C=C/C(=O)O[C@H]2CC[C@]34C[C@]35CC[C@]3(C)[C@@H]([C@H](C)CCC=C(C)C)CC[C@@]3(C)[C@@H]5CC[C@H]4C2(C)C)ccc1O`, the outcome is reported as “inactive; multisex inactive; multispecies inactive”.
With `COc1cc(-c2ccc(N)c(OC)c2)ccc1N` the outcome was “active; multisite active; multisex active; multispecies active”.
With `O=C(O)CN(CCN(CC(=O)O)CC(=O)O)CC(=O)O` the outcome was “inactive; multisex inactive; multispecies inactive”.
In the case of `C=C(C)C#N`, the outcome is reported as “inactive; multisex inactive; multispecies inactive”.
In the case of `COc1cccc2c1C(=O)c1c(O)c3c(c(O)c1C2=O)C[C@@](O)(C(=O)CO)C[C@@H]3O[C@H]1C[C@H](N)[C@H](O)[C@H](C)O1`, the outcome is reported as “inactive; multispecies inactive”.
With `Cc1cc(Cc2ccc(N)c(C)c2)ccc1N` the outcome was “active; multisite active; multisex active”.
For `Nc1ccc(S(=O)(=O)c2ccc(N)cc2)cc1`, the outcome was “active; multisite active”.
In the case of `CN(C)[C@@H]1C(=O)C(C(N)=O)=C(O)[C@@]2(O)C(=O)C3=C(O)c4c(O)cccc4[C@@](C)(O)[C@H]3[C@H](O)[C@@H]12`, the outcome is reported as “inactive; multisex inactive; multispecies inactive”.
For `Cc1ccc(/C(=C\CN2CCCC2)c2ccccn2)cc1`, the outcome was “inactive; multisex inactive; multispecies inactive”.
With `CN(C)C(=O)Nc1ccc(Cl)cc1` the outcome was “active; multisite active”.
In the case of `Cc1cc(C)nc(-c2ccc([N+](=O)[O-])o2)n1`, the outcome is reported as “active; multisite active”.
For `C=COC(C)=O`, the outcome was “active; multisite active; multisex active; multispecies active”.
With `O=C(O)CNCC(=O)O` the outcome was “inactive; multisex inactive”.
For `CC(=O)Nc1nc(-c2ccc([N+](=O)[O-])o2)cs1`, the outcome was “active; multisite active; multisex active; multispecies active”.
In the case of `c1ccc(OCC2CO2)cc1` (stereo not given), the outcome is reported as “active; multisex active”.
In the case of `CCC1(c2ccccc2)C(=O)NC(=O)NC1=O`, the outcome is reported as “active; multisex active”.
With `O=C1CCCCC1` the outcome was “inactive; multisex inactive; multispecies inactive”.
With `Cc1ccc2c(c1)C(N1CCN(C)CC1)=Nc1ccccc1S2` the outcome was “inactive; multisex inactive”.
For `O=c1cc[nH]c(=S)[nH]1`, the outcome was “active; multisite active; multisex active; multispecies active”.
With `COc1ccc(O)c(C(C)(C)C)c1` the outcome was “active; multisex active; multispecies active”.
For `Cc1c(COC(=O)C2C(/C=C(\Cl)C(F)(F)F)C2(C)C)cccc1-c1ccccc1` (stereo not given), the outcome was “inactive; multisex inactive”.
In the case of `NC(=O)c1cccnc1`, the outcome is reported as “inactive; multisex inactive”.
With `CCOc1nc2cccc(C(=O)OC(C)OC(=O)OC3CCCCC3)c2n1Cc1ccc(-c2ccccc2-c2nn[nH]n2)cc1` (stereo not given) the outcome was “inactive; multisex inactive”.
In the case of `Cc1cccc2cccnc12`, the outcome is reported as “inactive; multisex inactive”.
For `ClCC(Cl)Cl`, the outcome was “active; multisite active; multisex active”.
For `Cc1nc(N)cc2[nH]c3ccccc3c12`, the outcome was “active; multisite active; multisex active; multispecies active”.
For `CCCNC(=O)NS(=O)(=O)c1ccc(Cl)cc1`, the outcome was “inactive; multisex inactive; multispecies inactive”.
With `CCNC(=O)Nc1ncc([N+](=O)[O-])s1` the outcome was “active; multisite active; multisex active; multispecies active”.
For `Nc1ccccc1`, the outcome was “active; multisite active; multisex active”.
In the case of `COC1=CC(=O)C[C@@H](C)[C@]12Oc1c(Cl)c(OC)cc(OC)c1C2=O`, the outcome is reported as “active; multisite active; multisex active”.
With `COC(=O)NN` the outcome was “inactive; multisex inactive”.
For `CC(=O)OC/C=C(\C)CCC=C(C)C`, the outcome was “inactive; multisex inactive; multispecies inactive”.
For `CN(C)c1ccc(C(=O)c2ccc(N(C)C)cc2)cc1`, the outcome was “active; multisite active; multisex active; multispecies active”.
In the case of `c1ccc2c(c1)[nH]c1ccccc12`, the outcome is reported as “active; multisite active; multisex active”.
With `CNCCC(Oc1ccc(C(F)(F)F)cc1)c1ccccc1` (stereo not given) the outcome was “inactive; multisex inactive; multispecies inactive”.
For `CC(C)(C)c1cc(O)ccc1O`, the outcome was “inactive; multisex inactive”.
For `CCN(CC)C(=O)Nc1ccc(OCC(O)CNC(C)(C)C)c(C(C)=O)c1` (stereo not given), the outcome was “inactive; multisex inactive; multispecies inactive”.
For `CN(C)CNc1nnc(/C=C/c2ccc([N+](=O)[O-])o2)o1`, the outcome was “active; multisite active”.
With `CC(C(O)c1ccccc1)N(C)N=O` (stereo not given) the outcome was “active; multisite active”.
With `Clc1ccccc1Cl` the outcome was “inactive; multisex inactive; multispecies inactive”.
In the case of `N[C@@H](Cc1c[nH]c2ccccc12)C(=O)O`, the outcome is reported as “inactive; multisex inactive; multispecies inactive”.

Reference: PubChem BioAssay AID1205 (EPA DSSTox, 2008)
